Measurements published in US11566049B2, “Cyclic peptides and uses thereof” (LATERAL IP PTY LTD, priority 2018, dated 2023).
“And” between values parts separate entries of the source, which are not always exact repeats. Equal values may be shown once. “Also recorded” adds a separate entry of the source. Positions of bridges follow the written chain, without caps; N, C: chain ends. No end group written: not given here.

What was measured:
dorsal horn neurons [1] = test: whole-cell recording of dorsal horn neurons in spinal cord slices from Chung models (Example 3); assay type: cell-based, rat; details: 5 μM; for Input Resistance, mean in presence of peptide / Membrane Potential, mean in presence of peptide: all cells; for Normalised Input Resistance / Normalised Input Resistance ΔIR: control = 100; for effect on membrane potential and activity of dorsal horn neurons: ipsilateral to injury; for Normalised Membrane Potential / Normalised Membrane Potential ΔVm: rest = 100; for ΔIR, change in neuronal input resistance: vs control, positive in table = reduction; for ΔVm, change in membrane potential: vs rest, positive in table = hyperpolarisation
Method: Spinal nerve ligation (Chung model; as described in Examples 1 and 2, above) was performed by a single tight ligation on the L5 spinal nerve. […] This animal model is often used as the “gold standard” for neuropathic pain.
(§1) Adult male Sprague-Dawley rats, weighing 220-250 g (aged 7 weeks and older) at the time of surgery, were used in this study. They were housed in groups of 4, in an air-conditioned room, on a 12-hour light/dark cycle with food and water available ad libitum. All experiments were performed in accordance with the U. K. Animals (Scientific Procedures) Act (1986).
(§2) The animals were housed in groups of 4 in an air-conditioned room on a 12-hour light/dark cycle. Food and water were available ad libitum. Animals were allowed to acclimatise to the environment for experiments for three days by leaving them on a raised metal mesh for at least 40 min. The baseline paw withdrawal threshold (PWT) was examined using a series of graduated von Frey hairs (see below) for 3 consecutive days before surgery and re-assessed on the 6th to 8th day after surgery and on the 12th to 14th day-after surgery before drag dosing.
(§3) Each rat was anaesthetized with 5% isoflurane mixed with oxygen (2 L per min) followed by an intramuscular (i.m.) injection of ketamine 90 mg/kg plus xylazine 10 mg/kg. The back was shaved and sterilized with povidone-iodine. The animal was placed in a prone position and a para-medial incision was made on the skin covering the L4-6 level. The L5 spinal nerve was carefully isolated and tightly ligated with 6/0 silk suture. The wound was then closed in layers after a complete haemostasis. A single dose of antibiotics (Amoxipen, 15 mg/rat, i.p.) was routinely given for prevention of infection after surgery. The animals were placed in a temperature-controlled recovery chamber until fully awake before being returned to their home cages.
The peptides of SEQ ID NO:27 (also referred to herein as LAT9993 Loop) and SEQ ID NO:28 (also referred to herein as LAT9993S or LAT9993 LoopS), were solubilised in distilled water and made up as concentrated stocks and stored frozen until the day of experiment when they were diluted to the required test concentrations in artificial cerebrospinal fluid (aCSF). The aCSF comprised (mM): NaCl, 127; KCl, 1.9; KH2PO4, 1.2; CaCl2, 2.4; MgCl2, 1.3; NaHCO3, 26; D-glucose, 10; equilibrated with 95% O2-5% CO2.
(§4) Ten to fourteen days after surgery, animals were placed in individual Perspex boxes on a raised metal mesh for at least 40 minutes prior to PWT testing. Starting with the filament of lowest force (1 g), each filament was applied perpendicularly to the centre of the ventral surface of the paw until slightly bent for 6 seconds. If the animal withdrew or lifted its paw upon stimulation, a von Frey hair with force immediately lower than that tested was subsequently used. If no response was observed, then a hair with force immediately higher was tested. The lowest amount of force required to induce reliable responses (positive in 2 out of 3 trials) was recorded as the value of PWT. Only animals showing significant mechanical allodynia (PWT≤3.5 g) were selected for subsequent electrophysiological experiments (see FIG. 5).
(§5) Once validation of a neuropathic state had been confirmed, animals were terminally anesthetized using isoflurane (Norvartis Animal Health UK Ltd.), cervically dislocated and decapitated. A laminectomy was performed and the spinal cord, with spinal roots and DRG attached, removed and cut into 250-450 μm thick slices using a Leica VT1000S vibrating microtome (Leica Microsystems UK, Milton Keynes, United Kingdom). Slices were maintained in artificial cerebrospinal fluid (aCSF) at room temperature for 1 hr after slicing before recording. For recording, individual slices were held between two grids in a custom-built chamber continuously perfused with aCSF at a rate of 4-10 ml.min^−1, illuminated from below, and viewed under a dissection microscope. […]

dorsal horn neurons [2] = test: whole-cell recording of dorsal horn neurons in spinal cord slices from Chung models (Example 4); assay type: cell-based, rat; details: 1 μM
Method: as §1, with “(aged/weeks” for “(aged 7 weeks”, “U.K.” for “U. K.”
as §2, with “They” for “Animals”, “day after” for “day-after”, “drug” for “drag”
as §3
LAT9993 LoopS (SEQ ID NO:28), SEQ11+LAT9993 Loop (SEQ ID NO:32; […]), SEQ25+LAT9993 Loop (SEQ ID NO:33; […]), LAT9993 SLoop A4 (SEQ ID NO:30), LAT9993 SLoop A7 (SEQ ID NO:31), LAT9993 SLoop A9 (SEQ ID NO:34; SCRSRPVEASC) and LAT9993 SLoop A10 (SEQ ID NO:35; SCRSRPVESAC), were solubilised in distilled water and made up as concentrated stocks and stored frozen until the day of experiment when they were diluted to the required test concentrations in artificial cerebrospinal fluid (aCSF), as described in Example 3, above.
as §4
as §5, with “microscope. The aCSF was of the following composition (mM): NaCl, 127; KCl, 1.9; KH2PO4, 1.2; CaCl2, 2.4; MgCl2, 1.3; NaHCO3, 26; D-glucose, 10; equilibrated with 95% O2-5% CO2.” for “microscope.”

CRSRPVESSC (disulfide 1-10 (inferred); listed as Homo sapiens) [LAT9993 Loop, cyclic peptide of formula (I), disulphide bond between the two cysteine residues]
dorsal root afferent-mediated EPSPs (dorsal horn neurons [1]): suppression; also recorded: suppressed dorsal root afferent mediated excitatory synaptic transmission | evoked inhibitory post-synaptic potentials (dorsal horn neurons [1]): little effect | Input Resistance, mean in presence of peptide (dorsal horn neurons [1]): 566.3±82.0 MΩ and 566.3 MΩ | Membrane Potential, mean in presence of peptide (dorsal horn neurons [1]): −51.9±3.9 mV and −51.9 mV | Normalised Input Resistance (dorsal horn neurons [1]): 92.4 | Normalised Input Resistance ΔIR (dorsal horn neurons [1]): 7.6 | effect on membrane potential and activity of dorsal horn neurons (dorsal horn neurons [1]): marked membrane hyperpolarisation and inhibition of activity in 4 neurons; also recorded: little effect on a further 2 dorsal horn neurons | Normalised Membrane Potential (dorsal horn neurons [1]): 107.2 | Normalised Membrane Potential ΔVm (dorsal horn neurons [1]): −7.2 | ΔIR, change in neuronal input resistance (dorsal horn neurons [1]): 51.6±75.3 MΩ and 51.6 MΩ | ΔVm, change in membrane potential (dorsal horn neurons [1]): 3.5±1.1 mV and 3.5 mV

CRSRPVESSCS (disulfide 1-10 (inferred); listed as Homo sapiens) [LAT9993 LoopS, cyclic peptide of formula (I), disulphide bond between the two cysteine residues]
dorsal root afferent-mediated EPSPs / synaptic inputs (words) (dorsal horn neurons [2]): either slightly suppressed dorsal root-evoked excitatory post-synaptic potentials (EPSPs) or had little effect; also recorded: little effect | Input Resistance, mean in presence of peptide (dorsal horn neurons [2]; all cells): 502.6±104.1 MΩ and 502.6 MΩ | Membrane Potential, mean in presence of peptide (dorsal horn neurons [2]; all cells): −44.7±4.3 mV and −44.7 mV | Normalised Input Resistance (dorsal horn neurons [2]; control = 100): 92.8 | Normalised Input Resistance ΔIR (dorsal horn neurons [2]; control = 100): 7.2 | effect on membrane potential and activity of dorsal horn neurons (dorsal horn neurons [2]; ipsilateral to injury): membrane hyperpolarisation and inhibition of activity in 1 neurone; also recorded: membrane depolarisation in the other two neurons; also recorded: small excitation of dorsal horn | dorsal root afferent-mediated EPSPs / synaptic inputs (words) (dorsal horn neurons [2]; listed as LAT9993 Loop S): little effect | Normalised Membrane Potential (dorsal horn neurons [2]; rest = 100): 91.5 | Normalised Membrane Potential ΔVm (dorsal horn neurons [2]; rest = 100): 8.5 | reversal potential of induced response (VI plots intersect) (dorsal horn neurons [2]; single cells): around −85 mV | ΔIR, change in neuronal input resistance (dorsal horn neurons [2]; vs control, in table positive = reduction, negative = increase): 28.7±34.9 MΩ and 28.7 MΩ | dorsal root afferent-mediated EPSPs (dorsal horn neurons [1]): suppression of dorsal root afferent-mediated EPSPs, in one neurone selectively | Input Resistance, mean in presence of peptide (dorsal horn neurons [1]): 788±191.9 MΩ and 788.0 MΩ | Membrane Potential, mean in presence of peptide (dorsal horn neurons [1]): −50.6±1.8 mV and −50.6 mV | Normalised Input Resistance (dorsal horn neurons [1]): 95.6 | Normalised Input Resistance ΔIR (dorsal horn neurons [1]): 4.4 | effect on membrane potential and activity of dorsal horn neurons (dorsal horn neurons [1]): membrane hyperpolarisation and inhibition of activity in 3 neurons; also recorded: little effect on a further 2 dorsal horn neurons; also recorded: principally induced inhibition of dorsal horn neurons or was without significant effect | dorsal root afferent-mediated EPSPs (dorsal horn neurons [1]; listed as LAT999 LoopS): suppressed dorsal root-evoked excitatory posts-synaptic potentials (EPSPs) in two neurons | dorsal root afferent-mediated EPSPs (dorsal horn neurons [1]; listed as LAT9993S): suppression of EPSPs; also recorded: selectively suppressed | Normalised Membrane Potential (dorsal horn neurons [1]): 109.2 | Normalised Membrane Potential ΔVm (dorsal horn neurons [1]): −9.2 | reversal potential of induced response (VI plots intersect) (dorsal horn neurons [1]; single cells): around −55 mV | ΔIR, change in neuronal input resistance (dorsal horn neurons [1]): 22.1±24.2 MΩ and 22.1 MΩ | ΔVm, change in membrane potential (dorsal horn neurons [1]): 3.8±2 mV and 3.8 mV
